Experiments:
[1] = tested on: InflammaSkin® models; experiment: Hematoxylin & Eosin (H&E) staining of InflammaSkin models (skin structure, integrity, viability); type: cell-based, human; settings: Example 1; Day 7; Day 1-6: 1 μM Otezla or SCFA (45 μg/mL Ca-propionate + 1 mM Ca-/Mg-butyrate) systemic, 0.05% Betamethasone topical; vs untreated InflammaSkin
Method: A total of 16 biopsies of 15 mm diameter were produced from a single donor. Two NativeSkin® models with 12/15 mm silicon rings were produced from the biopsies according to standard procedures in place, and cultured under cell culture conditions (37° C., 5% CO2, max. humidity) for 7 days with 2 mL of standard NativeSkin® medium renewed every day. Fourteen PSO-InflammaSkin® models with 12/15 mm silicon rings were produced by inducing in situ activation and Th17/Th1 polarization of skin resident T cells with a proprietary cocktail, and cultured under cell culture conditions (37° C., 5% CO2, max. humidity) for 7 days with 2 mL of PSO-InflammaSkin® culture medium renewed every day.
From Day 1 to Day 6, models were systemically treated with 1 μM Otezla or Short Chain Fatty Acids (SCFAs), or topically treated with positive control 0.05% Betamethasone
In these experiments, the SCFAs administered were 45 μg/mL of Ca-propionate and 1 mM mixture of salts (Ca-butyrate and Mg-butyrate). […]
Skin structure and integrity and viability were evaluated using Hematoxylin & Eosin (H&E) staining following treatment with Betamethasone, […] Otezla® (Apremilast), or SCFAs comprising butyric acid and propionic acid. […] Therefore, the donor sample was determined to remain viable over the course of the culture in the absence of inflammation/T-cell activation.

[2] = tested on: IL-21; experiment: Multiplex (MSD V-PLEX) cytokine release, InflammaSkin: IL-21; type: cell-based, human; settings: Example 2; 1 μM Otezla systemic; compared to untreated InflammaSkin
Method: (§1) A total of 16 biopsies of 15 mm diameter were produced from a single donor. Two NativeSkin® models with 12/15 mm silicon rings were produced from the biopsies according to standard procedures in place, and cultured under cell culture conditions (37° C., 5% CO2, max. humidity) for 7 days with 2 mL of standard NativeSkin® medium renewed every day. Fourteen PSO-InflammaSkin® models with 12/15 mm silicon rings were produced by inducing in situ activation and Th17/Th1 polarization of skin resident T cells with a proprietary cocktail, and cultured under cell culture conditions (37° C., 5% CO2, max. humidity) for 7 days with 2 mL of PSO-InflammaSkin® culture medium renewed every day. […]
(§2) Human pro-inflammatory cytokines released in the supernatant were quantified using the V-PLEX Human IL-17A Kit (MesoScale Discovery, reference: K151RFD-1) and V-PLEX Human custom Pro-inflammatory. […]
(§3) Samples were diluted four times for plate 2 and two times for plate 1. Samples and standards were assessed in duplicate. Plates were read on MesoScale Discovery Quickpleax SQ 120 plate reader and values expressed in pg/mL.
(§4) A statistical analysis was performed. […] First, the distribution's normality of the two compared group was assessed. […] If the two distributions were normal, the homogeneity of variances was assessed using a Fisher test on the variances. […]

[3] = tested on: imiquimod (IMQ)-induced psoriasis model mice; experiment: Back skin scaling, IMQ-induced psoriasis model in mice; type: in vivo, mouse; settings: for skin scaling: Example 12
Method: Topical application of IMQ, a TLR7/8 ligand and potent immune activator induced and exacerbated psoriasis in mice. The mouse IMQ-induced psoriasis (IMQ Ps) model was initiated by a repeated topical application of Aldara© cream (containing 5% IMQ) over 6 consecutive days. Female Balb/c mice (9 weeks of age at reception, ordered with 20 g, Charles River, Sulzfeld, Germany; n=10 mice/group, exception healthy controls n=4) received daily a topical application of 62.5 mg of commercially available IMQ cream (5% Aldara©) on the beforehand (day −1) shaved (~2 cm×3 cm), depilated (Pilka© cream) back skin, and 7 mg on the outer right ear skin for 6 consecutive days, translating in a daily dose of approximately 3.5 mg IMQ. Healthy control mice were included in the study and were treated with vehicle cream (Vaseline; Bombastus-Werke AG) only instead of IMQ. Additionally, an IMQ disease control group was also included.
Disease Severity Score was evaluated on a daily base starting with the induction of psoriasis by IMQ application (day 0) until the end (day 6) of the study. The psoriasis severity on the back skin of the mice was evaluated by using a modified scoring system developed by van der Fits et al., based on the clinical PASI (psoriasis area and severity index) and takes skin erythema, scaling and skin thickening into account. Scoring was performed by the same lab technician throughout the experiment. Each parameter was scored independently on a scale from 0 to 3.
Before starting treatment on the day of disease induction (day 0), mice were randomized based on body weight to the respective group. To evaluate the anti-inflammatory efficacy of the two compounds in mouse IMQ psoriasis, mice were treated twice daily ([…] in sterile water; m/m/v) alone, with fixed dose of SCFA (in ddH2O) alone, […] dose of SCFA. Healthy and IMQ disease controls were orally treated in parallel with vehicle only. All treatments started with first application of IMQ on day 0.
Skin scaling, one of the disease severity score parameters, was evaluated in IMQ-treated mice (FIGS. 57-59).

[4] = tested on: TNF-α; experiment: ELISA analysis of TNF-α, InflammaSkin; type: cell-based, human; settings: Example 2; Otezla-treated InflammaSkin; FIG. 20
[5] = Observations of animal well-being in IMQ-induced psoriasis model mice; type: in vivo, mouse
[6] = tested on: MIP-3α; experiment: Multiplex (MSD V-PLEX) cytokine release, InflammaSkin: MIP-3α; type: cell-based, human; settings: Example 2; 1 μM Otezla systemic; compared to untreated InflammaSkin
Method: as §1, §2, §3, §4

CCOc1cc([C@@H](CS(C)(=O)=O)N2C(=O)c3cccc(NC(C)=O)c3C2=O)ccc1OC [Otezla, Apremilast]
H&E: incidence of pyknosis, vacuolization and epidermal/dermal separation [1]: reduce the incidence of pyknosis, vacuolization and epidermal/dermal separation
increase of secretion of IL-21 [2]: about 50%
back skin scaling (desquamation) over time ([3]; Example 9, Apremilast 25 mg/kg BID, SCFA fixed dose (120 mg/kg/day Ca-propionate + 1,100 mg/kg/day Ca-/Mg-butyrate), alone or combined, oral): able to inhibit the skin scaling from day 3 to day 5
cumulative evaluation of skin scaling over the entire course of the study ([3]; Example 9, Apremilast 25 mg/kg BID, SCFA fixed dose (120 + 1,100 mg/kg/day), alone or combined, p<0.01): significant and similar beneficial effects
skin scaling ([3]; day 5 and day 6, Apremilast 25 mg/kg BID alone, or combined with fixed dose SCFA (60 + 1,100 mg/kg/day)): significantly inhibited skin scaling on day 5 (p<0.05) and day 6 (p<0.01)
skin scaling ([3]; day 6, fixed dose SCFA alone, Apremilast 12 mg/kg BID alone, or both combined): did not reach significance at day 6
TNFα level (by ELISA) [4]: ~13 pg/mL
observations of animal well-being ([5]; Example 4, SCFA fixed dose BID (120 + 2,146 mg/kg/day), Apremilast 50 mg/kg/day, oral, study duration): reduced activity, ruffled coat and were slightly hunched
observations of animal well-being ([5]; Example 7, SCFA (120 + 1,100 mg/kg/day), Apremilast 2.5, 5, 7 mg/kg BID, or combinations, study duration): well tolerated
observations of animal well-being ([5]; Example 8 (written in present tense), SCFA, Apremilast 2.5, 5, 7 mg/kg BID, or combinations): well tolerated
observations of animal well-being ([5]; Example 9, SCFA fixed dose, Apremilast 25 mg/kg BID, or combination, study duration): well tolerated
observations of animal well-being ([5]; Example 10 (written in present tense), SCFA, Apremilast 25 mg/kg BID, or combination): well tolerated
observations of animal well-being ([5]; Example 12, SCFA fixed dose, Apremilast 12 or 25 mg/kg BID, or combinations, study duration): well tolerated
increase of secretion of MIP-3a [6]: about 50%

Reference: patent publication US20260216109A1, “TREATMENT OF SKIN DISORDERS WITH SHORT CHAIN FATTY ACIDS” (Temple University-Of The Commonwealth System of Higher …, priority 2023, published 2026)
